In patent US8207146B2, “Phenothiazine derivative having a double bond, method for the production thereof, and use thereof as a pharmaceutical” (Sanofi-Aventis, priority 2007, dated 2012) one finds EC150 and Fold induction data, which are given here for two compounds.

The target in the data set is T1, Human glucokinase (Homo sapiens, UniProt P35557).
T1 sequence (P35557 6-464 isoform P35557-3 limits assumed): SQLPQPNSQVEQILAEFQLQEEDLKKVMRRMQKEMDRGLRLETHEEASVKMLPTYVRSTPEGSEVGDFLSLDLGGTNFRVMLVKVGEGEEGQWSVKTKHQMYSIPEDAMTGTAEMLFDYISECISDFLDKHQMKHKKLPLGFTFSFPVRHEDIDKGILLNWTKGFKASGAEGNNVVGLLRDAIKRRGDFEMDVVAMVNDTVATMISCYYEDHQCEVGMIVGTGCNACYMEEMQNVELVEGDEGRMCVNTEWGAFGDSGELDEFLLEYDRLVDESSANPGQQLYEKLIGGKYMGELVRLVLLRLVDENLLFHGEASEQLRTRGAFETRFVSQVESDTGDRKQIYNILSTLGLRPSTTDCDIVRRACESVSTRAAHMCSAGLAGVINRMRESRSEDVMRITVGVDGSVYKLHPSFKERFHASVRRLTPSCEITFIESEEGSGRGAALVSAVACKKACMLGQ
Conditions: 5 mM glucose; for EC150: concentration of test compound which increases the enzymatic activity by 50%, 1 mM ATP, 25° C., pH 7; for Fold induction: maximum fold stimulation: highest change in extinction in the range 0.1-100 μM relative to change without test substance.

In turn, `CN1c2ccccc2S(=O)(=O)c2ccc(/C(=C\C3CCCC3)C(=O)Nc3ccn(C)n3)cc21` [Example 1, (E)-3-cyclopentyl-2-(10-methyl-5,5-dioxo-5,10-dihydrophenothiazin-2-yl)-N-(1-methyl-1H-pyrazol-3-yl)acrylamide] returned an EC150 of 1.70 µM and a Fold induction of 3.2.

`COc1ccc2nc(NC(=O)/C(=C/C3CCC(=O)CC3)c3ccc4c(c3)Nc3ccccc3S4(=O)=O)sc2n1` [Example 4, (E)-2-(5,5-dioxo-5,10-dihydrophenothiazin-2-yl)-N-(5-methoxythiazolo[5,4-b]pyridin-2-yl)-3-(4-oxocyclohexyl)acrylamide] returned an EC150 of 0.2 µM and a Fold induction of 4.8.
